In PubChem BioAssay AID686942 (Broad Institute, 2013):

Test system: V. cholerae SLS353 luxOD47E qrr4-GFP fluorescence
Experiment: LuxO inhibitors, qrr4 GFP production in absence of autoinducers, V. cholerae, confirmatory (AID 686942)

Structure (SMILES)	AC50 [nM]
Cn1nc(NC(=O)c2ccco2)c2cc3ccccc3nc21	2000
O=C(Nc1nnc(-c2ccc3c(c2)OCCO3)o1)C1CCCCC1	2000
COc1ccc2cc3c(NC(=O)c4ccco4)nn(C)c3nc2c1	2000
